Results reported in article PMC13071375, “Restriction endonuclease selective inhibition by β-cyclodextrin sulfate” (Bioscience Reports, 2025).
“And” between values parts separate entries of the source, which are not always exact repeats. Equal values may be shown once. Where a name gives a salt, the structure may show the parent alone. Read-outs that look alike come from different tables or passages of the source.

Legend:
EcoRI = target: T1, EcoRI (Escherichia coli, UniProt P00642); format: biochemical
T1 construct: purchased Thermo Fisher Scientific ER0271
T1 sequence (P00642 2-277): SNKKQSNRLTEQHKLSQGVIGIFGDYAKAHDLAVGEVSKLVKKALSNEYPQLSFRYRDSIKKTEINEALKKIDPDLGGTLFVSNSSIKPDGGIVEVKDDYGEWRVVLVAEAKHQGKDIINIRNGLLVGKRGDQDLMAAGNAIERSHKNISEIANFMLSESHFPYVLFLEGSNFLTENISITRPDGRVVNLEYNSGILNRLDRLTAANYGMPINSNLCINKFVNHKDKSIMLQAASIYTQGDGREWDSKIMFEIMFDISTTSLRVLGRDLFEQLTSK
Procedure: (§2) Digestion time course studies were conducted for each RE by incubating 2 μl of NdeI-linearised pBR322 (2.5 ng/μl), 1 μl of RE (1.25 U/μl), 2 μl of appropriate buffer, and 15 μl of molecular biology grade water at 37°C for various times (Supplementary Figure S1). […] These times were used as the digestion time for the RE inhibition assays.
(§3) To determine the effects of β-CDsul treatment on REs, Nl-pBR322 was incubated at 37°C with EcoRI, VspI, or HindIII for the previously determined amount of time.
(§4) β-CDsul and EDTA stock solutions were made in molecular biology grade water, and dilution series were prepared at appropriate concentrations to give the necessary final concentrations of each in the assay mixture. The assay mixture composition was 2 μl of Nl-pBR322 (2.5 ng/μl), 1 μl of RE (1.25 U/μl), 2 μl of appropriate buffer, 1 μl of β-CDsul or EDTA at desired concentration, and 14 μl of molecular biology grade water. As a negative control, 1 μl extra of microbiology grade water was used instead of EDTA or β-CDsul. After the appropriate amount of incubation time at 37°C, the REs were thermally inactivated by incubation at 65°C for 20 min.
Electrophoresis gel solution was prepared using 0.8% (w/v) agarose (Thermo Scientific™ Agarose I (Molecular Biology Grade)) with 1× TBE Buffer (Thermo Scientific™ TBE Buffer (Tris–borate–EDTA) (10×)). The mixture was heated until the agarose was completely dissolved and the solution became clear. Sybr Safe DNA stain (1% (v/v), Invitrogen™ SYBR™ Safe DNA Gel Stain) was added into the agarose solution. The final solution was poured into the gel tray and cooled down to room temperature (25°C). Ten microliters of samples from digestion experiments was mixed well with 1 μl of 500× diluted SYBR Safe Gel Stain (ThermoFisher Scientific™ Invitrogen, catalogue number S33102) and 1 μl of 5× diluted FlashGel Loading Dye (Lonza Bioscience, catalogue number 50462) and then loaded into wells. A FlashGel™ Dock system was used for electrophoresis with a voltage of 0–300 VDC, power of 15 W, and current of 50 mA.
(§5) Gel images were captured using a UV-transilluminator capturing system (Syngene™ Ingenius 3 Manual Gel Documentation System) with the following parameters: resolution: 3.0 MP, bit depth: 12/16 bit, and wavelength: 302 nm. The images were analysed using GelAnalyzer [19] software by calculating the normalised intensities of fragment bands.

VspI = format: biochemical; settings: for IC50: Nl-pBR322 substrate, 20 min digestion at 37°C, Buffer O
Procedure: as §2, §3, §4
(§6) Electrophoresis gel solution was prepared using 0.8% (w/v) agarose (Thermo Scientific™ Agarose I (Molecular Biology Grade)) with 1× TBE Buffer (Thermo Scientific™ TBE Buffer (Tris–borate–EDTA) (10×)). The mixture was heated until the agarose was completely dissolved and the solution became clear. Sybr Safe DNA stain (1% (v/v), Invitrogen™ SYBR™ Safe DNA Gel Stain) was added into the agarose solution. The final solution was poured into the gel tray and cooled down to room temperature (25°C). […]
as §5

EcoRI and VspI [1] = experiment: Co-digestion assay of Nl-pBR322 with EcoRI and VspI (dual RE system); format: biochemical
Procedure: (§1) The digestion time was either variable or fixed at 120 min for the variable concentration experiment to achieve full digestion. The composition of the components with the co-digestion assays was more complex than single digestion systems due to the need for simultaneously optimising the activity of each RE in the non-ideal buffer system of the other RE.

EcoRI and VspI [2] = tested on: T2, EcoRI and VspI; experiment: as above; format: biochemical
T2 construct: purchased Thermo Fisher Scientific ER0271, ER0911
Procedure: as §1

HindIII [3] = target: T3, HindIII (Haemophilus influenzae, UniProt P43870); settings: read-out: IC50 HindIII; Nl-pBR322 substrate, 40 min digestion at 37°C, Buffer R
T3 sequence (P43870 whole entry): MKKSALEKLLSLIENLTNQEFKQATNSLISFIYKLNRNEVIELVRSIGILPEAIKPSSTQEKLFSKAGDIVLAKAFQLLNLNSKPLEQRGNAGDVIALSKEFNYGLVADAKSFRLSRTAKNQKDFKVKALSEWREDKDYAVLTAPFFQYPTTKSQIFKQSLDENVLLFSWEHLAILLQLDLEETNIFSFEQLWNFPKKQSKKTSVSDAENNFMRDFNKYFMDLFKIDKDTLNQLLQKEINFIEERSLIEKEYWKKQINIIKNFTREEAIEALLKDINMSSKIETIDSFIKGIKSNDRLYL
Procedure: as §2, §3, §4, §6, §5

Nrul = tested on: Nrul; parameters: method as in PMID 25126898; settings: digestion of λ DNA; cited from earlier work
HindIII [4] = target: T3, HindIII; parameters: purchased Thermo Fisher Scientific ER0501; method as in PMID 25126898; settings: digestion of λ DNA; cited from earlier work
KpnI = tested on: KpnI; parameters: method as in PMID 25581012; settings: cited from earlier work
SacI = tested on: SacI; parameters: method as in PMID 25581012; settings: cited from earlier work
XapI = tested on: XapI; parameters: method as in PMID 25581012; settings: cited from earlier work
HindIII [5] = target: T3, HindIII; experiment: biochemical; settings: Nl-pBR322 substrate, 40 min digestion at 37°C, Buffer R
Procedure: as §2, §3, §4, §6, §5

REs = tested on: REs; parameters: method as in PMID 25126898; settings: cited from earlier work
[6] = Nl-pBR322 substrate, 20 min digestion at 37°C, Buffer EcoRI, read-out: IC50 EcoRI
[7] = 10 μM β-CDsul, time course 30–240 min

## O=S(=O)(O)OCC1OC2OC3C(COS(=O)(=O)O)OC(OC4C(COS(=O)(=O)O)OC(OC5C(COS(=O)(=O)O)OC(OC6C(COS(=O)(=O)O)OC(OC7C(COS(=O)(=O)O)OC(OC8C(COS(=O)(=O)O)OC(OC1C(OS(=O)(=O)O)C2OS(=O)(=O)O)C(OS(=O)(=O)O)C8OS(=O)(=O)O)C(OS(=O)(=O)O)C7OS(=O)(=O)O)C(OS(=O)(=O)O)C6OS(=O)(=O)O)C(OS(=O)(=O)O)C5OS(=O)(=O)O)C(OS(=O)(=O)O)C4OS(=O)(=O)O)C(OS(=O)(=O)O)C3OS(=O)(=O)O (stereo not drawn) [β-CDsul, β-cyclodextrin sulfate]
EcoRI; EcoRI vs HindIII or VspI
  fold difference in IC50 values, EcoRI vs HindIII or VspI: 13- to 27 fold
EcoRI; [6]
  IC50: 5 µM
EcoRI; ratio of IC50s, EcoRI vs HindIII
  fold more potent at inhibiting EcoRI compared with HindIII: 13 fold
EcoRI; ratio of IC50s, EcoRI vs VspI
  fold more potent at inhibiting EcoRI compared with VspI: about 27 fold
VspI
  IC50: 133 µM
VspI; VspI vs HindIII
  fold difference in IC50 against VspI and HindIII: two-fold
EcoRI and VspI [1]; [7]
  time of maximum concentration of fragment A in EcoRI/VspI co-digestion: 60 min
EcoRI and VspI [1]; Five hundred micromolar β-CDsul, 120 min
  digestion in EcoRI/VspI co-digestion: no digestion by either RE
EcoRI and VspI [2]; [7]
  decrease of fragment A concentration (EcoRI action) in EcoRI/VspI co-digestion: does not decrease until 240 min
EcoRI and VspI [2]; between 5 and 10 μM β-CDsul, 120 min, still no Nl-pBR322, VspI less affected
  EcoRI inhibition in EcoRI/VspI co-digestion (fragment A concentration): significant increase in EcoRI inhibition
HindIII [3]
  IC50: 65 µM
Nrul
  IC50: 3 µM
HindIII [4]
  IC50: 6 µM

## O=C1N2CN3C(=O)N4CN5C(=O)N6CN7C(=O)N8CN9C(=O)N%10CN%11C(=O)N%12CN%13C(=O)N%14CN1C1C2N2CN%15C(=O)N(CN%16C(=O)N(CN%17C(=O)N(CN%18C(=O)N(CN%19C(=O)N(CN%20C(=O)N(CN1C2=O)C%14C%13%20)C%12C%11%19)C%10C9%18)C8C7%17)C6C5%16)C4C3%15 (stereo not drawn) [CB7]
KpnI; linearised pGL3-Basic DNA
  IC50: ~200 µM
KpnI; plasmid pGL3-Basic DNA
  IC50: ~90 µM
SacI; linearised pGL3-Basic DNA
  IC50: ~350 µM
SacI; plasmid pGL3-Basic DNA
  IC50: ~250 µM
XapI; linearised pGL3-Basic DNA
  IC50: ~500 µM
XapI; plasmid pGL3-Basic DNA
  IC50: ~500 µM

## O=C(O)CN(CCN(CC(=O)O)CC(=O)O)CC(=O)O [EDTA]
EcoRI; [6]
  IC50: 18 µM and 17 µM
EcoRI; all three enzymes, Nl-pBR322, read-out: range of IC50 values across EcoRI, HindIII and VspI
  IC50: 12 to 17 µM
VspI
  IC50: 12 µM
HindIII [5]
  IC50: 13 µM and 12 µM

## OC[C@H]1O[C@@H]2O[C@H]3[C@H](O)[C@@H](O)[C@@H](O[C@H]4[C@H](O)[C@@H](O)[C@@H](O[C@H]5[C@H](O)[C@@H](O)[C@@H](O[C@H]6[C@H](O)[C@@H](O)[C@@H](O[C@H]7[C@H](O)[C@@H](O)[C@@H](O[C@H]8[C@H](O)[C@@H](O)[C@@H](O[C@H]1[C@H](O)[C@H]2O)O[C@@H]8CO)O[C@@H]7CO)O[C@@H]6CO)O[C@@H]5CO)O[C@@H]4CO)O[C@@H]3CO [β-CD]
REs
  inhibition of REs: no inhibition was observed
